From patent publication US7186736B1, “NNI for treatment of multi-drug resistant HIV” (Parker Hughes Institute, priority 1999, dated 2007)
pIC50: −log10 of the molar value. Like-named read-outs stand apart in the source and are kept apart here.

How the values were obtained:
[1] = test system: HIV strain HTLV-IIIB (WT); test: p24 production in PBMNC infected with HTLV-IIIB; assay type: cell-based, HIV-1
Protocol: (§1) Percent inhibition of viral replication was calculated by comparing the p24 values from the test substance treated infected cells with p24 values from untreated infected cells (i.e., virus controls). In parallel, the effects of various treatments on cell viability were also examined, as described in Enrice et. al., supra. In brief, non-infected PBNWC were treated with each compound for 7 days under identical experimental conditions. A Microculture Tetrazolium Assay (NTFA), using 2,3-bis(2-methoxy-4 nitro-5-sulfophenyl)-5-[(phenylamino)-carbonyl]-2H-tetrazolium hydroxide (XTT), was performed to quantitate cellular proliferation.

[2] = test system: HIV strain RT-MDR (74V, 41L, 106A, 215Y); test: microbe, parasite or virus in culture; assay type: cell-based, HIV-1; conditions: for times less potent than DDE240: multiple drug resistant mutant strain
Protocol: as §1

HIV strain A17 (Y181C) = test: p24 production in PBMNC infected with A17; assay type: cell-based, HIV-1; conditions: for pIC50: Human immunodeficiency virus 1, read-out: IC50 p24
Protocol: (§2) Normal human peripheral blood mononuclear cells (PBMNC) from HIV-negative donors were cultured 72 hours in RPMI 1640 supplemented with 20% (v/v) heat-inactivated fetal bovine serum (FBS), 3% interleukin-2, 2 mM L-glutairtine, 25 mM HEPES, 2 μL, NAHCO, […] gentamicin, and 4 μg/mL phytohemagglutinin prior to exposure to HIV-I at a multiplicity of infection (MOI) of 0.1 during a one-hour adsorption period at 37'C in a humidified 5% C02 atmosphere. Subsequently, cells were cultured in 96-well microliter plates (100 μl/well; 2×10^6 cells/mL, triplicate wells) in the presence of various inhibitor concentrations and aliquots of culture supernatants were removed from the wells on the 7th day after infection for p24 antigen p24 enzyme immunoassays (EIA), as previously described. (see Erice et. al., 1993, Antiimicrob. Ag. Chemotherapy 37:835–838) The applied p24 EIA was the unmodified kinetic assay commercially available from Coulter Corporation/Immunotech, Inc. (Westbrooke, Me.), which utilizes a murine monoclonal antibody to HIV core protein coated onto microwell strips to which the antigen present in the test culture supernatant samples binds. Percent inhibition of viral replication was calculated by comparing the p24 values from the test substance treated infected cells with p24 values from untreated infected cells (i.e., virus controls). In parallel, the effects of various treatments on cell viability were also examined, as described in Enrice et. al., supra. In brief, non-infected PBNWC were treated with each compound for 7 days under identical experimental conditions. A Microculture Tetrazolium Assay (NTFA), using 2,3-bis(2-methoxy-4 nitro-5-sulfophenyl)-5-[(phenylamino)-carbonyl]-2H-tetrazolium hydroxide (XTT), was performed to quantitate cellular proliferation.

[3] = test system: HIV strain A17 variant (Y181C, K103N); test: p24 production in PBMNC infected with A17 variant; assay type: cell-based, HIV-1; conditions: Human immunodeficiency virus 1, read-out: IC50 p24
Protocol: as §2

[4] = molecular target: T1, purified recombinant HIV RT (Human immunodeficiency virus type 1 group M subtype B, UniProt P04585); test: Purified RT assay, cell-free Quan-T-RT system (scintillation proximity); assay type: biochemical; conditions: for pIC50: recombinant HIV RT, cell-free
T1 construct: purified recombinant HIV RT
Protocol: The primer DNA is a 16-mer oligo(T) which has been annealed to a poly(A) template. The primer/template is bound to a strepavidin-coated SPA bead.
3H-TTP is incorporated into the primer by reverse transcription. […] The compound being tested was added to the reaction mixture at 0.001 μM–100 μM concentrations. […] The reaction was stopped by addition of 0.2 ml of 120 mM EDTA. The samples were counted in an open window using a Beckman LS 7600 instrument and IC, values were calculated by comparing the measurements to untreated samples.

[5] = Human immunodeficiency virus 1, HTLV IIIB WT, PBMNC, read-out: IC50 p24
[6] = Human immunodeficiency virus 1, read-out: IC50 p24, RT-MDR (74V, 41L, 106A, 215Y), PBMNC
[7] = Human immunodeficiency virus 1, IIIB, HIV replication assay
[8] = Human immunodeficiency virus 1, HTLV IIIB, PBMNC, read-out: IC50[p24]

Cc1ccnc2c1NC(=O)c1cccnc1N2C1CC1 [Nevirapine, reference compound]
pIC50 [1, 5]: 7.47
pIC50 [2, 6]: 5.30
pIC50 (HIV strain A17 (Y181C)): < 4.00
pIC50 [3]: < 4.00

Cc1cn([C@H]2C[C@H](N=[N+]=[N-])[C@@H](CO)O2)c(=O)[nH]c1=O [AZT, reference compound]
IC90 [1, 7]: 100 nM
pIC50 [2, 6]: 6.82
pIC50 (HIV strain A17 (Y181C)): 8.22

COc1ccc(OC)c(CCNC(=S)Nc2ccc(Br)cn2)c1 [DDE236, N-[2-(2,5-dimethoxyphenylethyl)]-N′-[2-(5-bromopyridyl)]-thiourea]
times more potent than trovirdine ([4]; purified recombinant HIV-RT): 8 times
IC90 fold better than AZT ([1]; HIV replication assay): 10 fold
IC90 [1, 7]: 9 nM
pIC50 [1, 5]: > 9.00
selectivity index (IC50[MTA]/IC50[p24]) ([1]; calculated): > 10^5
pIC50 [2, 6]: 8.30
pIC50 (HIV strain A17 (Y181C)): 7.00
pIC50 [3]: 4.96
melting point: 133 to 138 °C

Fc1ccc(CCNC(=S)Nc2ccc(Br)cn2)cc1 [DDE242]
pIC50 ([4]; RRT (IC50[rRT])): 5.22
pIC50 ([4]; read-out: RRT (IC50[rRT])): 5.22
pIC50 [1, 8]: 8.00

Fc1cccc(CCNC(=S)Nc2ccc(Br)cn2)c1 [DDE241]
pIC50 ([4]; read-out: RRT (IC50[rRT])): 6.12
pIC50 [1, 5]: > 9.00
pIC50 [2, 6]: 7.70

Fc1ccccc1CCNC(=S)Nc1ccc(Br)cn1 [DDE240, N-[2-(2-fluorophenethyl)]-N′-[2-(5-bromopyridyl)]-thiourea]
pIC50 [1, 5]: > 9.00
pIC50 [1, 8]: > 9.00
pIC50 [2, 6]: 8.22
fold better activity than delavirdine ([2]; MDR HIV): 100 fold
fold better activity than nevirapine ([2]; MDR HIV): 800 fold
pIC50 ([2]; read-out: IC50 p24, RT-MDR (74V, 41L, 106A, 215Y), PBMNC): 8.30
pIC50 (HIV strain A17 (Y181C)): 6.70
times better activity than delavirdine (HIV strain A17 (Y181C); Y181C mutant): 200 times
times more potent than nevirapine (HIV strain A17 (Y181C); Y181C mutant): more than 500 times
pIC50 [3]: 4.39
melting point: 156 to 157 °C

S=C(NCCc1ccccc1Cl)Nc1ccc(Br)cn1 [DDE253]
pIC50 [1, 5]: > 9.00
pIC50 [2, 6]: 8.40

CC(C)Nc1cccnc1N1CCN(C(=O)c2cc3cc(NS(C)(=O)=O)ccc3[nH]2)CC1 [Delavirdine, reference compound]
pIC50 [1, 5]: 8.05
pIC50 [2, 6]: 6.40
pIC50 (HIV strain A17 (Y181C)): 4.30
pIC50 [3]: < 4.00

S=C(NCCc1ccccn1)Nc1ccc(Br)cn1 [Trovirdine, reference compound]
pIC50 ([1]; Human immunodeficiency virus 1, IIIB, read-out: IC50 p24): 8.15
times less potent than DDE240 ([1]; zidovudine-sensitive strain HTLV IIIB): 10 times
pIC50 ([2]; Human immunodeficiency virus 1, read-out: IC50 p24): 7.70
times less potent than DDE240 [2]: up to 7 times
times less potent than DDE240 ([2]; listed as Trouviridine): three times less potent

CCOCn1c(Cc2ccccc2)c(C(C)C)c(=O)[nH]c1=O [MKC-442, reference compound]
pIC50 ([4]; read-out: RRT (IC50[rRT])): 6.10
pIC50 [2, 6]: 6.52
